Our source for the Activity, Kd and MIC values is ChEMBL document CHEMBL5233279, “d-Mannose binding, aggregation property, and antifungal activity of amide derivatives of pradimicin A” (Bioorg Med Chem, 2021).

Converted amounts (≈) assume the structure as drawn. Where only a bound is given, the exact number is not on record here.

Series [1] is described as follows: Aggregation property of the compound in MPOS buffer at pH 7.0 assessed as compound remaining in supernatant at 1 mM incubated for 15 mins at 37 degreeC followed by 30 mins incubation at room temperature by HPLC based sedimentation assay relative to control. The format is physicochemical. The following applies: pH 7, 0.75 h, 1000 µM, time 45 min.
The nature of series [2]: Binding affinity to methyl alpha-D-mannopyranoside (unknown origin) in MPOS buffer at pH 7.0 assessed as primary dissociation constant (Kd1) by ITC experiment.
In the next series the test system is Diutina rugosa. In words: Antifungal activity against Candida rugosa AJ14513 assessed as inhibition of fungal growth incubated for 48 hrs. The format is functional.
Series [3] in a line: Binding affinity to methyl alpha-D-mannopyranoside (unknown origin) in MPOS buffer at pH 7.0 assessed as secondary dissociation constant (Kd2) by ITC experiment. (Isothermal titration calorimetry measures the heat released or taken up as one component is titrated into another.)
A short description of series [4]: Aggregation property of the compound in MPOS buffer at pH 7.0 assessed as compound remaining in supernatant incubated for 15 mins at 37 degreeC followed by 30 mins incubation at room temperature by HPLC based sedimentation assay relative to control. The format is physicochemical. Details: concentration or dose not given beside the values. Conditions: pH 7, 0.75 h, time 45 min.

The nature of series [5]: Aggregation property of the compound in MPOS buffer at pH 7.0 incubated for 15 mins at 37 degreeC followed by 30 mins incubation at room temperature by HPLC based sedimentation assay. The format is physicochemical. Conditions: pH 7, 0.75 h, time 45 min.
Series [6] can be described thus: Binding affinity to D-mannose (unknown origin) in MPOS buffer at pH 7.0 assessed as secondary dissociation constant (Kd2) by ITC experiment.
Series [7] in a line: Binding affinity to D-mannose (unknown origin) in MPOS buffer at pH 7.0 assessed as primary dissociation constant (Kd1) by ITC experiment.

Turning to `CNC(=O)[C@@H](C)NC(=O)c1c(C)cc2c(c1O)-c1c(cc3c(c1O)C(=O)c1cc(OC)cc(O)c1C3=O)[C@H](O)[C@H]2O[C@@H]1O[C@H](C)[C@H](NC)[C@H](O[C@@H]2OC[C@@H](O)[C@H](O)[C@H]2O)[C@H]1O`, the Activity in series [1] is greater than 60%. In addition, the Kd in series [2] was found to be 860 µM; in series [3], 6.5 mM. Moreover, the MIC with Diutina rugosa was 16 µg/mL (≈ 18.7 µM).

Regarding `CN[C@@H]1[C@H](O[C@@H]2OC[C@@H](O)[C@H](O)[C@H]2O)[C@@H](O)[C@H](O[C@H]2c3cc(C)c(C(=O)N[C@H](C)C(=O)NOC)c(O)c3-c3c(cc4c(c3O)C(=O)c3cc(OC)cc(O)c3C4=O)[C@@H]2O)O[C@@H]1C`, the Kd in series [2] came to 360 µM; in series [3], 5.3 mM. For the same compound, in the series with Diutina rugosa, the MIC was 16 µg/mL (≈ 18.4 µM). The Activity in series [4] was found to be 65%.

Consider `CN[C@@H]1[C@H](O[C@@H]2OC[C@@H](O)[C@H](O)[C@H]2O)[C@@H](O)[C@H](O[C@H]2c3cc(C)c(C(=O)N[C@H](C)C(=O)O)c(O)c3-c3c(cc4c(c3O)C(=O)c3cc(OC)cc(O)c3C4=O)[C@@H]2O)O[C@@H]1C` [PRADIMICIN A], for which, in series [5], the outcome was Active. Further, the Kd in series [2] turned out to be 96 µM; in series [3], 3.8 mM. The MIC in the series with Diutina rugosa came to 4 µg/mL (≈ 4.76 µM).

As for `CN[C@@H]1[C@H](O[C@@H]2OC[C@@H](O)[C@H](O)[C@H]2O)[C@@H](O)[C@H](O[C@H]2c3cc(C)c(C(=O)N[C@H](C)C(=O)NCCO)c(O)c3-c3c(cc4c(c3O)C(=O)c3cc(OC)cc(O)c3C4=O)[C@@H]2O)O[C@@H]1C`, the MIC in the series with Diutina rugosa stood at 16 µg/mL (≈ 18.1 µM).

In the case of `CN[C@@H]1[C@H](O[C@@H]2OC[C@@H](O)[C@H](O)[C@H]2O)[C@@H](O)[C@H](O[C@H]2c3cc(C)c(C(=O)N[C@H](C)C(=O)N(C)OC)c(O)c3-c3c(cc4c(c3O)C(=O)c3cc(OC)cc(O)c3C4=O)[C@@H]2O)O[C@@H]1C`, the Kd in series [2] was 340 µM; in series [3], 5.2 mM. For the same compound, in the series with Diutina rugosa, the MIC came out at 16 µg/mL (≈ 18.1 µM). Besides, in series [4], the Activity was 65%.

With `CN[C@@H]1[C@H](O[C@@H]2OC[C@@H](O)[C@H](O)[C@H]2O)[C@@H](O)[C@H](O[C@H]2c3cc(C)c(C(=O)N[C@H](C)C(N)=O)c(O)c3-c3c(cc4c(c3O)C(=O)c3cc(OC)cc(O)c3C4=O)[C@@H]2O)O[C@@H]1C`, the Activity in series [1] is listed as greater than 60%. Further, the Kd in series [2] worked out at 220 µM; in series [3] it was 5.5 mM. For the same compound, in the series with Diutina rugosa, the minimal inhibitory concentration (MIC) stood at 16 µg/mL (≈ 19.1 µM).

As to `CN[C@@H]1[C@H](O[C@@H]2OC[C@@H](O)[C@H](O)[C@H]2O)[C@@H](O)[C@H](O[C@H]2c3cc(C)c(C(=O)N[C@H](C)C(=O)N(C)O)c(O)c3-c3c(cc4c(c3O)C(=O)c3cc(OC)cc(O)c3C4=O)[C@@H]2O)O[C@@H]1C`, the dissociation constant Kd in series [2] worked out at 180 µM; in series [3], 3.5 mM. In addition, the MIC in the series with Diutina rugosa worked out at 16 µg/mL (≈ 18.4 µM). In addition, the Activity in series [4] was 65%.

As for `CN[C@@H]1[C@H](O[C@@H]2OC[C@@H](O)[C@H](O)[C@H]2O)[C@@H](O)[C@H](O[C@H]2c3cc(C)c(C(=O)N[C@H](C)C(=O)NO)c(O)c3-c3c(cc4c(c3O)C(=O)c3cc(OC)cc(O)c3C4=O)[C@@H]2O)O[C@@H]1C`, the equilibrium dissociation constant (Kd) in series [6] was 5.5 mM; in series [7], 100 µM; in series [2], 75 µM; in series [3], 4.3 mM. Further, the minimal inhibitory concentration (MIC) with Diutina rugosa came out at 8 µg/mL (≈ 9.35 µM). The Activity in series [4] amounted to 65%.

In the case of `CN[C@@H]1[C@H](O[C@@H]2OC[C@@H](O)[C@H](O)[C@H]2O)[C@@H](O)[C@H](O[C@H]2c3cc(C)c(C(=O)N[C@H](C)C(=O)NN)c(O)c3-c3c(cc4c(c3O)C(=O)c3cc(OC)cc(O)c3C4=O)[C@@H]2O)O[C@@H]1C`, the values for the Kd in series [2] and in series [3] were 300 µM and 9.8 mM, respectively. In addition, the MIC with Diutina rugosa worked out at 16 µg/mL (≈ 18.7 µM). The Activity in series [4] is recorded as 65%.

What is called Kd is the free concentration of one partner at which half of the binding sites on the other are occupied at equilibrium, for simple one-to-one binding. The term MIC denotes the smallest concentration in the dilution series that meets the test's criterion for growth inhibition.
